Measured values: the supplement of paper PMC10307832

How the values were obtained:
Experiment in all cases: relative viability (nuclei count vs DMSO), 5 days (fraction); higher = more cells survive
[1] = compound: CCN(CCO)CCCC(C)Nc1ccnc2cc(Cl)ccc12 [Hydroxychloroquine] + COc1cccc2cc(-c3nc([C@H]4CC[C@H](C(=O)O)CC4)n4ncnc(N)c34)[nH]c12 [OSI-027] (partner 0.5 µM)
How it was run: (§1)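 Cells from lung cancer lines were seeded into 1536-well plates and, one day later, dosed by pin tool. Treatments were either a single drug or a fixed dose of an anchor drug with five library-drug doses (not always all listed) in √10 steps. After 5 days, nuclei were stained in a one-step fixation (final 0.05% Triton X-100, 1% formaldehyde, 1 ug/ml Hoechst) and counted on 4× images, and relative viability is the treated-to-vehicle nuclei ratio, as the median of duplicate plates.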

[2] = compound: CCN(CCO)CCCC(C)Nc1ccnc2cc(Cl)ccc12 [Hydroxychloroquine] + CS(=O)(=O)CCNCc1ccc(-c2ccc3ncnc(Nc4ccc(OCc5cccc(F)c5)c(Cl)c4)c3c2)o1 [Lapatinib] (partner 2 µM)
How it was run: as §1

[3] = compound: CCN(CCO)CCCC(C)Nc1ccnc2cc(Cl)ccc12 [Hydroxychloroquine] + C[C@]1(O)C[C@@H](c2nc(-c3ccc4ccc(-c5ccccc5)nc4c3)c3c(N)nccn32)C1 [Linsitinib] (partner 1 µM)
How it was run: as §1

[4] = compound: CCN(CCO)CCCC(C)Nc1ccnc2cc(Cl)ccc12 [Hydroxychloroquine] + Cc1nc(NC(=O)N2CCC[C@H]2C(N)=O)sc1-c1ccnc(C(C)(C)C(F)(F)F)c1 [Alpelisib] (partner 2 µM)
How it was run: as §1

Cell Line	relative viability ([1]; first compound 0.5 µM)	relative viability ([1]; first compound 1.581 µM)	relative viability ([1]; first compound 5 µM)	relative viability ([1]; first compound 15.81 µM)	relative viability ([1]; first compound 50 µM)	relative viability ([2]; first compound 0.5 µM)	relative viability ([2]; first compound 1.581 µM)	relative viability ([2]; first compound 5 µM)	relative viability ([2]; first compound 15.81 µM)	relative viability ([2]; first compound 50 µM)	relative viability ([3]; first compound 0.5 µM)	relative viability ([3]; first compound 1.581 µM)	relative viability ([3]; first compound 5 µM)	relative viability ([3]; first compound 15.81 µM)	relative viability ([3]; first compound 50 µM)	relative viability ([4]; first compound 0.5 µM)	relative viability ([4]; first compound 1.581 µM)	relative viability ([4]; first compound 5 µM)	relative viability ([4]; first compound 15.81 µM)	relative viability ([4]; first compound 50 µM)
NCI-H23	0.684	0.447	0.572	0.535	0.572	1.08	0.915	0.957	1.22	1.1	0.499	0.693	0.56	0.553	0.546	0.863	0.725	0.701	0.609	0.57
NCI-H322M	0.557	0.535	0.634	0.519	0.609	0.557	0.642	0.554	0.619	0.634	0.891	1.06	0.961	0.945	0.972	0.864	0.814	0.864	0.758	0.769
NCI-H358	0.666	0.616	0.783	0.83	0.991	0.487	0.432	0.412	0.486	0.476	0.795	0.704	0.712	0.69	0.743	0.832	0.698	0.775	0.91	0.8
NCI-H460	0.621	0.649	0.569	0.672	0.847	1.03	1.05	0.778	1.55	1.5	0.849	0.862	0.633	0.939	0.848	0.609	0.428	0.439	0.421	0.52
NCI-H520	0.301	0.22	0.285	0.324	0.268	0.934	0.898	0.857	0.958	0.978	1.25	0.908	0.908	1.16	0.923	1.04	0.776	0.901	0.999	0.89
NCI-H596	0.755	0.672	0.625	0.761	0.883	0.969	0.995	1.04	1.05	1	0.947	1.11	1.13	1.04	0.982	0.461	0.463	0.546	0.606	0.492
NCI-H647	0.703	0.737	0.683	0.893	0.607	1.22	1.11	1.09	1.26	1.26	1.27	1.01	1.29	1.25	1.22	1.12	1.06	1.1	1.02	1.13
NCI-H650	0.566	0.557	0.61	0.555	0.545	0.894	0.862		0.892	1.09	0.907	0.802		0.828	0.818	1.08	1.17		1.1	1.17
NCI-H661	0.668	0.52	0.629	0.583	0.697	0.433	0.426	0.43	0.467	0.465	0.537	0.361	0.564	0.542	0.598	0.665	0.567	0.795	0.547	0.481
NCI-H727	0.672	0.639	0.796	0.555	0.632	0.893	0.842	0.699	0.814	0.931	0.279	0.276	0.306	0.305	0.357	0.454	0.58	0.589	0.512	0.526
NCI-H838	0.421	0.392	0.37	0.406	0.401	1.07	1.02	1.03	0.923	1.12	0.929	0.91	1.01	0.93	1.04	1.04	0.946	0.983	1.04	1.08
NCI-H1355	0.509	0.301	0.371	0.332	0.44	1.03	0.88	1.02	0.887	1.06	0.872	0.879	0.896	0.809	0.892	0.81	0.744	0.837	0.833	0.86
NCI-H1395	0.67	0.566	0.639	0.638	0.549	1.25	1.09	0.907	0.877	0.955	0.964	0.979	1.13	1.13	1.18	0.979	0.899	0.975	1.09	0.954
NCI-H1437	0.813	1.02	0.859	0.949	0.909	0.833	1.05	0.885	0.758	0.845	0.904	1.07	1.18	1.16	1.05	0.909	0.926	1.05	1	1.05
NCI-H1563	0.736	0.625	0.79	0.794	0.716	0.839	0.756	0.951	0.798	0.866	1.03	1.04	1.18	1.06	1.17	0.908	0.877	1	0.888	0.871
NCI-H1651	0.659	0.69	0.677	0.786	0.781	0.811	0.925	0.729	0.979	0.988	0.909	1.1	0.975	1.14	0.963	0.963	0.926	1.05	1.04	0.989
